Drawing on patent US20250346616A1 (DIZAL (JIANGSU) PHARMACEUTICAL CO., LTD., priority 2022, published 2025), this text covers IC50 for 27 compounds.

For one test, the system named is pMLC2. The test is described as follows: Cellular PD assay, pMLC2 in PASMC (western blot). The test is classed as cell-based. The following applies: Human Pulmonary Artery Smooth Muscle Cells, 30 min incubation. How it is done:
(§1) PASMC (Human Pulmonary Artery Smooth Muscle Cells) were grown in Smooth Muscle Cell Growth medium (Promocell #C-22162). The cells were resuspended at 3×10^5 cells per well in 6-well plate in Smooth Muscle Cell Growth medium (Promocell #C-22162) and incubated compound concentration range: (10000/1111/333/111/37/12.3/4.1/0.41/0 nM) for 30 min.
(§2) Cells were then placed on ice and washed with ice-cold PBS. Cell lysates were prepared with 2×SDS. Separate proteins by SDS-PAGE 2 hr, transfer of proteins form gel to membrane 90 min, Blocking the membrane with 5% milk 1 hr and incubation in primary antibody overnight at 4° C., Incubate the membrane in HRP-conjugated secondary antibody diluted in blocking buffer (1:2000) for 1 hour at room temperature. Detection using Amersham ECL plus western blotting detection system (LAS4000). The purified product was analysed by SDS PAGE and the amount of target protein calculated by gray scanning by Multi-Gauge V3.0 software.

A further test concerns the target Recombinant ROCK1 (Homo sapiens (Human), UniProt Q13464). The test is described as follows: Lance Ultra Kinase Assay, ROCK1 inhibition. The test is classed as biochemical. The following applies: ATP at Km, 30 min pre-incubation, 1 h reaction.
A further test concerns the target Recombinant ROCK2 (Homo sapiens (Human), UniProt O75116). As to the kind of experiment: Lance Ultra Kinase Assay, ROCK2 inhibition. In kind it is biochemical. To be noted: ATP at Km, 30 min pre-incubation, 1 h reaction.
The test system of a further test is pMYPT1. The test is described as follows: Cellular PD assay, pMYPT1 in PASMC (western blot). The following applies: Human Pulmonary Artery Smooth Muscle Cells, 30 min incubation. The test is classed as cell-based. How it is done: as §1, §2
In general terms: Immunoblotting shows a protein as a band on a membrane.

Sequence of Recombinant ROCK1 (Q13464 whole entry): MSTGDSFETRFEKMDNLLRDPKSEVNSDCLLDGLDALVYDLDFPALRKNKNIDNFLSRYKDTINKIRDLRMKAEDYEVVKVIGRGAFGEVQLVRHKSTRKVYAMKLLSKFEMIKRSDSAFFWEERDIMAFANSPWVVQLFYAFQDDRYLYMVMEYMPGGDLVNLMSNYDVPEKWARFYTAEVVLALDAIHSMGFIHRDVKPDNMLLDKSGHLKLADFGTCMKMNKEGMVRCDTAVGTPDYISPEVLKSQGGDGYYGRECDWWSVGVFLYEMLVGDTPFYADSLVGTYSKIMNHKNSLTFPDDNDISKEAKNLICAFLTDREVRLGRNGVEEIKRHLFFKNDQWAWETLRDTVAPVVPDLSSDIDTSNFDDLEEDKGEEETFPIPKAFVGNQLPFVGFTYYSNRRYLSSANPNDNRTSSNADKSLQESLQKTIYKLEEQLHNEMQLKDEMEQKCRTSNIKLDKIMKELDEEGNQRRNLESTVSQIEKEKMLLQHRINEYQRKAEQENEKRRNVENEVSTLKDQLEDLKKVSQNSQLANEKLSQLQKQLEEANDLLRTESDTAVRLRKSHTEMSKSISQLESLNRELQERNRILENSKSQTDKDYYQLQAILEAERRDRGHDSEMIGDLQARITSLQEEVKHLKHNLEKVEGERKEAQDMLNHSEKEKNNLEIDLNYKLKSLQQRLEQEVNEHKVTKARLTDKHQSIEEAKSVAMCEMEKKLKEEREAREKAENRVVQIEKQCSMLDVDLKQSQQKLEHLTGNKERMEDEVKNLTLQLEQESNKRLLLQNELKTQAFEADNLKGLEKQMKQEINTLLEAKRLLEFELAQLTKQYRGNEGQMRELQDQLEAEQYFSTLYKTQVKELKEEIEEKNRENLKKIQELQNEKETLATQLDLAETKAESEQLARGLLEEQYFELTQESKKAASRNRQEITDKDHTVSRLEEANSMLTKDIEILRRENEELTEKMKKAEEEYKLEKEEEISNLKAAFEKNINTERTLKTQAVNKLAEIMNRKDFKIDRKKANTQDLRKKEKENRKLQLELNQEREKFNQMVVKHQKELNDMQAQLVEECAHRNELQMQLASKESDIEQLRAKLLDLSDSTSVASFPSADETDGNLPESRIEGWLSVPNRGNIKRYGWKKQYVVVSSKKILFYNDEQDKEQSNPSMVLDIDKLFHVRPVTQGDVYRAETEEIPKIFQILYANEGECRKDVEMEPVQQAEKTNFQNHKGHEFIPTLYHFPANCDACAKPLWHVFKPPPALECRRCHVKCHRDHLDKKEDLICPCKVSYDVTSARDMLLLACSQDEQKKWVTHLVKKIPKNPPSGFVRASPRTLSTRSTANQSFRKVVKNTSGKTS
Sequence of Recombinant ROCK2 (O75116 whole entry): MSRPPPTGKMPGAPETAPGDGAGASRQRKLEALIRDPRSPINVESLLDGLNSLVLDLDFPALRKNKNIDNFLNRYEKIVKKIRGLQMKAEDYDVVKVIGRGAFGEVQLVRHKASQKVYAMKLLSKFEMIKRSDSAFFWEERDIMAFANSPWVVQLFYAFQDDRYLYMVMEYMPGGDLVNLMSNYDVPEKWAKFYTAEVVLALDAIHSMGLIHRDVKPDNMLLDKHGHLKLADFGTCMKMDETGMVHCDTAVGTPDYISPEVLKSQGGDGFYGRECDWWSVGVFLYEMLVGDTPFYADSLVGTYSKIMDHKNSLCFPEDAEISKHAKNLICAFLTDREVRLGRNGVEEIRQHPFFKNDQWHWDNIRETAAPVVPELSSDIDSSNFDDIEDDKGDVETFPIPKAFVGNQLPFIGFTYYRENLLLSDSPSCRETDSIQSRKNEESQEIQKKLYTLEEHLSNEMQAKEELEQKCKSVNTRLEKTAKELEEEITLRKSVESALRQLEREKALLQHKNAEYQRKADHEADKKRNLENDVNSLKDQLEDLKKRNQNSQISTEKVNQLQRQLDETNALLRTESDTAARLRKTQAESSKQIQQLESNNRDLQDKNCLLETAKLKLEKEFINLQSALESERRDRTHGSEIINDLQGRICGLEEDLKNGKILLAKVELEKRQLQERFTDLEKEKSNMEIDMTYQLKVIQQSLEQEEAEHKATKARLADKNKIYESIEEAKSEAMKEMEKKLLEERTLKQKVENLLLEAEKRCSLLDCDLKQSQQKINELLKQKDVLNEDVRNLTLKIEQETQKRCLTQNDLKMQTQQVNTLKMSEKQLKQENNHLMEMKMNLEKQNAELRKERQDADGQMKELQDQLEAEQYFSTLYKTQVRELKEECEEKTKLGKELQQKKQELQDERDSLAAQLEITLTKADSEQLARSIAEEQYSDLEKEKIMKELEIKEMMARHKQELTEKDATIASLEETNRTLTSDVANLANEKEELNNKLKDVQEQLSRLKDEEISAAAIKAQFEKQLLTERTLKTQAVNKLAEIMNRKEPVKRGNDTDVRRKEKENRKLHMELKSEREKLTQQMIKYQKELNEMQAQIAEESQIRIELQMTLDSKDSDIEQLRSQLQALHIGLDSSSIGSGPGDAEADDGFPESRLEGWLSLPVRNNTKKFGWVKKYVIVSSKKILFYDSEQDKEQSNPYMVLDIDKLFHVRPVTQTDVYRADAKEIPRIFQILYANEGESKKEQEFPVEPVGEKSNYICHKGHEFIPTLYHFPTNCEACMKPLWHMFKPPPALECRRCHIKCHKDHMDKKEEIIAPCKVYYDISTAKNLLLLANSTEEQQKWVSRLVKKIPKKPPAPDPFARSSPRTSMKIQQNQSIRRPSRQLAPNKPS

Consider `NC(C(=O)Nc1cccc2c(-c3cn[nH]c3)c[nH]c12)c1ccccc1` (racemic) [Example 7, N-(3-(1H-pyrazol-4-yl)-1H-indol-7-yl)-2-amino-2-phenylacetamide], for which the IC50 (usually the point on the concentration scale where inhibition reaches its midpoint) with pMLC2 (PASMC, 0.5 h) amounted to 13 nM; on Recombinant ROCK1, 34 nM.
Take `NCC(C(=O)Nc1cccc2c(-c3cn[nH]c3)c[nH]c12)C1CCCCC1` (racemic) [Example 22, 3-amino-2-cyclohexyl-N-[3-(1H-pyrazol-4-yl)-1H-indol-7-yl]propanamide]: the IC50 in the test on pMLC2 (PASMC, 0.5 h) stood at 13 nM; at Recombinant ROCK1 it was 1.1 nM; on Recombinant ROCK2, 0.88 nM; in the test on pMYPT1 (PASMC, 0.5 h), 1.5 nM.
In the case of `CN1CCN(CC(C(=O)Nc2cccc3c(-c4cn[nH]c4)c[nH]c23)c2ccccc2)CC1` (racemic) [Example 37, N-(3-(1H-pyrazol-4-yl)-1H-indol-7-yl)-3-(4-methylpiperazin-1-yl)-2-phenylpropanamide], the IC50 is 8 nM in the test on pMLC2 (PASMC, 0.5 h); 0.71 nM on Recombinant ROCK1; 0.43 nM at Recombinant ROCK2; 6.2 nM in the test with pMYPT1 (PASMC, 0.5 h).
For `CN1CCC(C(C(=O)Nc2cccc3c(-c4cn[nH]c4)c[nH]c23)c2ccccc2)CC1` (racemic) [Example 43, N-(3-(1H-pyrazol-4-yl)-1H-indol-7-yl)-2-(1-methylpiperidin-4-yl)-2-phenylacetamide], in that order: 102 nM, 1.3 nM, 0.66 nM and 18 nM.
Take `NCC(Cc1ccccc1)C(=O)Nc1cccc2c(-c3cn[nH]c3)c[nH]c12` (racemic) [Example 52, 3-amino-2-benzyl-N-[3-(1H-pyrazol-4-yl)-1H-indol-7-yl]propanamide]: the IC50 in the test with pMLC2 (PASMC, 0.5 h) was 12 nM; on Recombinant ROCK1, 0.93 nM; at Recombinant ROCK2, 0.59 nM.
Take `NCC(C(=O)Nc1cccc2c(-c3cn[nH]c3)c[nH]c12)C1CCCCC1` (single isomer, unassigned) [Example 23, N-(3-(1H-pyrazol-4-yl)-1H-indol-7-yl)-3-amino-2-cyclohexylpropanamide]: the IC50 stood at 3.5 nM in the test with pMLC2 (PASMC, 0.5 h); 0.19 nM at Recombinant ROCK1; 0.13 nM at Recombinant ROCK2; 4.3 nM in the test on pMYPT1 (PASMC, 0.5 h).
Consider `CN1CCC(C(C(=O)Nc2cccc3c(-c4cn[nH]c4)c[nH]c23)c2ccccc2)CC1` (single isomer, unassigned) [Example 45, N-(3-(1H-pyrazol-4-yl)-1H-indol-7-yl)-2-(1-methylpiperidin-4-yl)-2-phenylacetamide], for which the IC50 in the test with pMLC2 (PASMC, 0.5 h) worked out at 29 nM; on Recombinant ROCK1 it was 0.53 nM; at Recombinant ROCK2 it was 0.27 nM; in the test with pMYPT1 (PASMC, 0.5 h), 11 nM.
Turning to `N[C@@H](C(=O)Nc1cccc2c(-c3cn[nH]c3)c[nH]c12)c1cccnc1` (single isomer, unassigned) [Example 131, N-(3-(1H-pyrazol-4-yl)-1H-indol-7-yl)-2-amino-2-(pyridin-3-yl) acetamide], the values for the IC50 on Recombinant ROCK1 and at Recombinant ROCK2 were 22 nM and 12 nM, respectively.
For `N[C@H](C(=O)Nc1cccc2c(-c3cn[nH]c3)c[nH]c12)c1cccnc1` (single isomer, unassigned) [Example 132, N-(3-(1H-pyrazol-4-yl)-1H-indol-7-yl)-2-amino-2-(pyridin-3-yl) acetamide], in that order: 0.76 nM and 0.39 nM.
In the case of `COc1cccc(C(CN)NC(=O)c2cccc3c(-c4cn[nH]c4)c[nH]c23)c1` (single isomer, unassigned) [Example 136, N-(2-amino-1-(3-methoxyphenyl)ethyl)-3-(1H-pyrazol-4-yl)-1H-indole-7-carboxamide], the IC50 in the test on pMLC2 (PASMC, 0.5 h) is 5.1 nM; on Recombinant ROCK1 it was 0.62 nM; at Recombinant ROCK2 it was 0.24 nM; in the test on pMYPT1 (PASMC, 0.5 h), 1.9 nM.
Turning to `COc1cccc(C(CN2CCN(C)CC2)NC(=O)c2cccc3c(-c4cn[nH]c4)c[nH]c23)c1` (single isomer, unassigned) [Example 137, N-(1-(3-methoxyphenyl)-2-(4-methylpiperazin-1-yl)ethyl)-3-(1H-pyrazol-4-yl)-1H-indole-7-carboxamide], the IC50 on Recombinant ROCK1 was 149 nM; on Recombinant ROCK2 it was 65 nM.
The like results for `COc1cccc(C(CN2CCN(C)CC2)NC(=O)c2cccc3c(-c4cn[nH]c4)c[nH]c23)c1` (single isomer, unassigned) [Example 138, N-(1-(3-methoxyphenyl)-2-(4-methylpiperazin-1-yl)ethyl)-3-(1H-pyrazol-4-yl)-1H-indole-7-carboxamide] were, in that order, 73 nM and 23 nM.
Turning to `COc1cccc(C(CN)NC(=O)c2cccc3c(-c4cn[nH]c4)c[nH]c23)c1` (single isomer, unassigned) [Example 139, N-(2-amino-1-(3-methoxyphenyl)ethyl)-3-(1H-pyrazol-4-yl)-1H-indole-7-carboxamide], the IC50 on Recombinant ROCK1 worked out at 5.5 nM; at Recombinant ROCK2, 3.1 nM.
The like results for `COc1cccc(C(NC(=O)c2cccc3c(-c4cn[nH]c4)c[nH]c23)C2CCN(C)CC2)c1` (single isomer, unassigned) [Example 141, N-((3-methoxyphenyl) (1-methylpiperidin-4-yl)methyl)-3-(1H-pyrazol-4-yl)-1H-indole-7-carboxamide] were, in that order, 331 nM and 163 nM.
Take `COc1cccc(C(NC(=O)c2cccc3c(-c4cn[nH]c4)c[nH]c23)C2CCN(C)CC2)c1` (single isomer, unassigned) [Example 142, N-((3-methoxyphenyl) (1-methylpiperidin-4-yl)methyl)-3-(1H-pyrazol-4-yl)-1H-indole-7-carboxamide]: the results for the IC50 at Recombinant ROCK1 and at Recombinant ROCK2 were 113 nM and 37 nM, respectively.
The like results for `COc1ccc(C(CN)NC(=O)c2cccc3c(-c4cn[nH]c4)c[nH]c23)cc1` (single isomer, unassigned) [Example 144, N-(2-amino-1-(4-methoxyphenyl)ethyl)-3-(1H-pyrazol-4-yl)-1H-indole-7-carboxamide] were, in that order, 60 nM and 32 nM.
Consider `COc1ccc(C(CN)NC(=O)c2cccc3c(-c4cn[nH]c4)c[nH]c23)cc1` (single isomer, unassigned) [Example 145, N-(2-amino-1-(4-methoxyphenyl)ethyl)-3-(1H-pyrazol-4-yl)-1H-indole-7-carboxamide], for which the IC50 on Recombinant ROCK1 came out at 46 nM; on Recombinant ROCK2, 20 nM.
`N[C@H](C(=O)Nc1cccc2c(-c3cn[nH]c3)c[nH]c12)c1ccccc1` [Example 9, (2S)-2-amino-2-phenyl-N-[3-(1H-pyrazol-4-yl)-1H-indol-7-yl]acetamide]: the IC50 came out at 15 nM with pMLC2 (PASMC, 0.5 h); 0.24 nM on Recombinant ROCK1; 2.2 nM in the test with pMYPT1 (PASMC, 0.5 h).
For `CN1CCN(C[C@@H](C(=O)Nc2cccc3c(-c4cn[nH]c4)c[nH]c23)c2ccccc2)CC1` [Example 40], the IC50 on Recombinant ROCK1 was determined as 0.33 nM; on Recombinant ROCK2 it was 0.18 nM.
The like results for `COc1cccc([C@H](N)C(=O)Nc2cccc3c(-c4cn[nH]c4)c[nH]c23)c1` [Example 41, (2S)-2-amino-2-(3-methoxyphenyl)-N-[3-(1H-pyrazol-4-yl)-1H-indol-7-yl]acetamide] were, in that order, 5.4 nM and 3.5 nM.
The like results for `NC[C@@H](Cc1ccccc1)C(=O)Nc1cccc2c(-c3cn[nH]c3)c[nH]c12` [Example 53, (2R)-3-amino-2-benzyl-N-[3-(1H-pyrazol-4-yl)-1H-indol-7-yl]propanamide] were, in that order, 5.8 nM and 4.1 nM.
As to `NC[C@H](Cc1ccccc1)C(=O)Nc1cccc2c(-c3cn[nH]c3)c[nH]c12` [Example 54, (2S)-3-amino-2-benzyl-N-[3-(1H-pyrazol-4-yl)-1H-indol-7-yl]propanamide], the figures for the IC50 on Recombinant ROCK1 and at Recombinant ROCK2 were 0.18 nM and 0.09 nM, respectively.
As for `N[C@@H](Cc1c[nH]c2ccccc12)C(=O)Nc1cccc2c(-c3cn[nH]c3)c[nH]c12` [Example 109, (2S)-2-amino-3-(1H-indol-3-yl)-N-[3-(1H-pyrazol-4-yl)-1H-indol-7-yl]propanamide], the results for the IC50 on Recombinant ROCK1 and on Recombinant ROCK2 were 15 nM and 11 nM, respectively.
Take `NC[C@@H](NC(=O)c1cccc2c(-c3cn[nH]c3)n[nH]c12)c1ccccc1` [Example 135, N-[(1S)-2-amino-1-phenyl-ethyl]-3-(1H-pyrazol-4-yl)-1H-indazole-7-carboxamide]: the IC50 in the test with pMLC2 (PASMC, 0.5 h) was found to be 1.3 nM; on Recombinant ROCK1, 4.5 nM; at Recombinant ROCK2 it was 1.2 nM; in the test on pMYPT1 (PASMC, 0.5 h) it was 26 nM.
`NC[C@@H](NC(=O)c1cncc2c(-c3cn[nH]c3)c[nH]c12)c1ccccc1` [Example 148, N-[(1S)-2-amino-1-phenyl-ethyl]-3-(1H-pyrazol-4-yl)-1H-pyrrolo[3,2-c]pyridine-7-carboxamide]: the IC50 was found to be 21 nM on Recombinant ROCK1 and 5.7 nM on Recombinant ROCK2.
For `COc1cccc(C(CN)C(=O)Nc2ncnc3c(-c4cn[nH]c4)c[nH]c23)c1` (stereo not drawn) [Example 154, N-(7-(1H-pyrazol-4-yl)-5H-pyrrolo[3,2-d]pyrimidin-4-yl)-3-amino-2-(3-methoxyphenyl)propanamide], the IC50 with pMLC2 (PASMC, 0.5 h) stood at 8.3 nM.
For `NC[C@@H](C(=O)Nc1ccc2cnccc2c1)c1ccc(CO)cc1` [Netasudil-M1], the IC50 amounted to 14 nM in the test with pMLC2 and 22 nM with pMYPT1.
